Results: patent US20150216925A1, “AGENT FOR PREVENTING OR AM[…] ENDOTHELIAL MALFUNCTION” (KYOWA HAKKO BIO CO., LTD., priority 2012, published 2015)

Test system: normal human umbilical vein endothelial cell (HUVEC)
Assay: NO production (nitrite in culture supernatant) in HUVEC, HPLC
Format: cell-based
Settings: 24-hour culture, FIG. 1
Method: A normal human umbilical vein endothelial cell (HUVEC) line available from Clonetics (SanDiego, Calif., USA) was used with EGM-2 Bullet Kit medium containing 2% FBS (Takara Bio). The cells were cultured in at 37° C., in 5% CO2 incubator, and used for experiment after 4 to 6 passages. Citrulline and reduced glutathione were obtained from Kyowa Hakko Bio.
A cell suspension (0.45 mL) with the adjusted initial cell concentration of 5×10^5 cells/mL was inoculated in a 24-well plate (IWAKI). After 40-hour culture, the media were replaced with those containing citrulline (final concentration 0.3 mM: citrulline group), reduced glutathione (final concentration 1 mM: high-dose glutathione group), and a citrulline and reduced glutathione mixture (citrulline final concentration 0.3 mM; glutathione final concentration 0.3 mM: citrulline+low-dose glutathione group). Media with the sole addition of solvent (PBS) were used as a control group. After 24-hour culture, the cell culture (100 μL) was centrifuged at 12,000 rpm for 10 minutes, and the concentration of nitrite (NO2), which is the stable NO metabolite, in culture supernatant was quantified by HPLC (ENO-20, EICOM).

Structure (SMILES) | effect on NO production (nitrite NO2 concentration in medium) (reduced glutathione final concentration 1 mM (high-dose)) | effect on NO production (nitrite NO2 concentration in medium) (citrulline final concentration 0.3 mM)
N[C@@H](CCC(=O)N[C@@H](CS)C(=O)NCC(=O)O)C(=O)O [glutathione, γ-L-Glu-L-Cys-Gly] | no effect | 
NC(=O)NCCC[C@H](N)C(=O)O [citrulline, L-citrulline] |  | no effect
